pIC50, pKi: −log10 of the molar value.
Tests used:
[1] = tested on: HCT-116; assay: Antiproliferative activity against human HCT-116 cells harboring p53 assessed inhibition of cell growth incubated for 4 days by CCK-8 assay; conditions: HCT-116, 96 h
[2] = tested on: RKO; assay: Antiproliferative activity against human RKO cells harboring p53 assessed inhibition of cell growth incubated for 4 days by CCK-8 assay; conditions: 96 h
[3] = tested on: U2OS; assay: Antiproliferative activity against human U2OS cells harboring p53 assessed inhibition of cell growth incubated for 4 days by celltiter-glo assay; conditions: 96 h
[4] = target: Tumour suppressor protein p53/Mdm4 (Homo sapiens, UniProt O15151); assay: Binding affinity to MDM4/p53 (unknown origin) assessed as inhibition constant by FP assay
[5] = target: Tumour suppressor p53/oncoprotein Mdm2 (Homo sapiens, UniProt Q00987); assay: Binding affinity to MDM2/p53 (unknown origin) assessed as inhibition constant by FP assay
[6] = tested on: HCT-116; assay: Antiproliferative activity against human HCT-116 cells harboring p53 assessed inhibition of cell growth incubated for 4 days by celltiter-glo assay; conditions: HCT-116, 96 h
[7] = target: T1, Protein Mdm4 (Homo sapiens, UniProt O15151); assay: biochemical
T1 sequence (O15151 whole entry): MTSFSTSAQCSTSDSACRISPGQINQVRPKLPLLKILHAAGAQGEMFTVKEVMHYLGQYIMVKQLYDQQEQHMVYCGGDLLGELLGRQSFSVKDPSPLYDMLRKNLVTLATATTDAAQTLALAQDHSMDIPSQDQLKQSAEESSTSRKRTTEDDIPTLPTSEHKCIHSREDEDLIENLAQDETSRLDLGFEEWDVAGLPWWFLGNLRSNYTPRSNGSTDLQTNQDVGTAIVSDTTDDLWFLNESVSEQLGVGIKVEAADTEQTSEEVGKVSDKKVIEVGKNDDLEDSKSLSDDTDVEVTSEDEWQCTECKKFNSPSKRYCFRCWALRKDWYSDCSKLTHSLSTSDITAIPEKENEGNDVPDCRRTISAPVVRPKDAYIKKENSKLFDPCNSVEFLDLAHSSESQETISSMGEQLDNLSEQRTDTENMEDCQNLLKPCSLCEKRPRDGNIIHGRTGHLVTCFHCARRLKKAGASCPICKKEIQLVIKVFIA
Description: Inhibition of MDM4 (14 to 111 residues)/p53 (unknown origin) interaction expressed in Escherichia coli BL21(DE3) cells assessed as inhibition constant incubated for 1.5 hrs by competitive fluorescence polarization assay

[8] = tested on: A549; assay: Growth inhibition of human A549 cells harboring p53 incubated for 4 days by CCK-8 assay; conditions: A549, 96 h
[9] = tested on: HepG2; assay: Growth inhibition of human HepG2 cells harboring p53 incubated for 4 days by celltiter glo assay; conditions: HepG2, 96 h
[10] = tested on: NCI-H460; assay: Growth inhibition of human NCI-H460 cells harboring p53 incubated for 4 days by CCK-8 assay; conditions: NCI-H460, 96 h
[11] = tested on: HeLa; assay: Growth inhibition of human HeLa cells harboring p53 incubated for 4 days by CCK-8 assay; conditions: 96 h
[12] = tested on: SW480; assay: Growth inhibition of human SW480 cells incubated for 4 days by CCK-8 assay; conditions: SW480, 96 h
[13] = tested on: MSTO-211H; assay: cells; conditions: Homo sapiens, 96 h
Description: Growth inhibition of human MSTO-211H cells harboring p53 incubated for 4 days by CCK-8 assay

Chain of Tumour suppressor p53/oncoprotein Mdm2 (P04637 whole entry): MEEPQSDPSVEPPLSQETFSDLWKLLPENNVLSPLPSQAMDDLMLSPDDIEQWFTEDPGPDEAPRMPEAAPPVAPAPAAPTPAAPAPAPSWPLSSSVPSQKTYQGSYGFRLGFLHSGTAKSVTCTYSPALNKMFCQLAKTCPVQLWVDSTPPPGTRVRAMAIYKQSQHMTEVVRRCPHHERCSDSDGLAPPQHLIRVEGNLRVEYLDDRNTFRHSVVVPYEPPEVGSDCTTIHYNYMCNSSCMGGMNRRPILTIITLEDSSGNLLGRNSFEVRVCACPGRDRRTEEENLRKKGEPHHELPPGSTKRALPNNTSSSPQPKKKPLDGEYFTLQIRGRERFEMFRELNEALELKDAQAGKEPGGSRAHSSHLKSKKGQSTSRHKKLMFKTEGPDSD
Chain of Tumour suppressor p53/oncoprotein Mdm2 (Q00987 whole entry): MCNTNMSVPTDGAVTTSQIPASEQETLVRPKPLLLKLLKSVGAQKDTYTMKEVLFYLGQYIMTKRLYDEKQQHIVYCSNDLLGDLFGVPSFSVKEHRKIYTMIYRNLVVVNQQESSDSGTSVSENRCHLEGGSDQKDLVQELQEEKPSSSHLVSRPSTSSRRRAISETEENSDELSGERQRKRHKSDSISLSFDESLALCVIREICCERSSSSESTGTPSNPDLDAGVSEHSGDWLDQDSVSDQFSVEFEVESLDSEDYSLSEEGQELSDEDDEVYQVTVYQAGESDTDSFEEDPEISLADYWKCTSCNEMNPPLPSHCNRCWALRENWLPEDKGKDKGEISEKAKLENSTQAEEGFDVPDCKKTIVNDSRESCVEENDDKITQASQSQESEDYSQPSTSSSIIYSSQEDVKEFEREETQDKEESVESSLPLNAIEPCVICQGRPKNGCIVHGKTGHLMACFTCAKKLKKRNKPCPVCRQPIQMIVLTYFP
Chain of Tumour suppressor protein p53/Mdm4 (P04637 whole entry, one chain of several): as the sequence (P04637 whole entry) above

**Q.** Which results are given for CCN1[C@@H](CC(C)(C)C)[C@@]2(CNc3cc(Cl)ccc32)[C@@H](c2ccccc2Cl)[C@@H]1C(=O)Nc1ccc(C(=O)O)cc1OC?
**A.** pIC50 [1]: 5.69; pIC50 [2]: 5.28; pIC50 [3]: 5.55

**Q.** How did the pKi [4] turn out when O=C1CN(C(=O)N2C(c3ccc4c(c3)C(=O)NCC(=O)N4c3ccccc3)=N[C@@H](c3ccc(Cl)cc3)[C@H]2c2ccc(Cl)cc2)CCN1 was run?
**A.** The pKi was 7.97.

**Q.** And the pKi [5]?
**A.** Its pKi is 8.68.

**Q.** What does the source list for CCN1[C@@H](CC(C)(C)C)[C@@]2(CNc3cc(Cl)ccc32)[C@@H](c2ccccc2F)[C@@H]1C(=O)Nc1ccc(C(=O)O)cc1OC?
**A.** pIC50 [1]: 6.06; pIC50 [2]: 5.53; pIC50 [3]: 5.47

**Q.** With COc1cc(C(=O)O)ccc1NC(=O)[C@@H]1N[C@@H](CC(C)(C)C)[C@@]2(CNc3cc(Cl)ccc32)[C@H]1c1cccc(F)c1 as the compound, how does the pIC50 [1] read?
**A.** The pIC50 was 8.89.

**Q.** What about the pIC50 [2] of the same compound?
**A.** The pIC50 was 7.17.

**Q.** With CCN1[C@@H](CC(C)(C)C)[C@@]2(CNc3cc(Cl)ccc32)[C@@H](c2cccc(C)c2)[C@@H]1C(=O)Nc1ccc(C(=O)O)cc1OC as the compound, how does the pIC50 [1] read?
**A.** The pIC50 was 6.84.

**Q.** What about the pIC50 [2] of the same compound?
**A.** Its pIC50 is 5.99.

**Q.** What about the pIC50 [3] of the same compound?
**A.** The pIC50 was 6.20.

**Q.** What does the source list for COc1cc(C(=O)O)ccc1NC(=O)[C@@H]1N[C@@H](CC(C)(C)C)[C@@]2(CNc3cc(Cl)ccc32)[C@H]1c1cccc(Cl)c1?
**A.** pIC50 [2]: 7.89; pIC50 [6]: > 9.00

**Q.** With CCN1[C@@H](CC(C)(C)C)[C@@]2(CNc3ccc(Cl)cc32)[C@@H](c2cccc(Cl)c2Cl)[C@@H]1C(=O)Nc1ccc(C(=O)O)cc1OC as the compound, how does the pIC50 [1] read?
**A.** Its pIC50 is 5.85.

**Q.** And the pIC50 [2]?
**A.** Its pIC50 is 5.35.

**Q.** What about the pIC50 [3] of the same compound?
**A.** The pIC50 was 5.73.

**Q.** Which results are given for CCN1[C@@H](CC(C)(C)C)[C@@]2(CNc3cc(Cl)ccc32)[C@@H](c2cccc(F)c2)[C@@H]1C(=O)Nc1ccc(C(=O)O)cc1OC?
**A.** pIC50 [1]: 7.59; pIC50 [2]: 6.76; pIC50 [3]: 6.52

**Q.** With COc1cc(C(=O)O)ccc1NC(=O)[C@@H]1N[C@@H](CC(C)(C)C)[C@@]2(CNc3cc(Cl)ccc32)[C@H]1c1cccc(C)c1 as the compound, how does the pIC50 [1] read?
**A.** Its pIC50 is 8.00.

**Q.** What about the pIC50 [2] of the same compound?
**A.** Its pIC50 is 6.36.

**Q.** How did the pIC50 [1] turn out when CCN1[C@@H](CC(C)(C)C)[C@@]2(CNc3cc(Cl)ccc32)[C@@H](c2cccc(Cl)c2Cl)[C@@H]1C(=O)Nc1ccc(C(=O)O)cc1OC was run?
**A.** The pIC50 was 7.12.

**Q.** What about the pIC50 [2] of the same compound?
**A.** Its pIC50 is 6.48.

**Q.** And the pIC50 [3]?
**A.** Its pIC50 is 6.19.

**Q.** How did the pIC50 [1] turn out when CNC(=O)c1ccc(NC(=O)[C@@H]2N[C@@H](CC(C)(C)C)[C@@]3(CNc4cc(Cl)ccc43)[C@H]2c2cccc(Cl)c2F)c(OC)c1 was run?
**A.** Its pIC50 is 7.66.

**Q.** And the pIC50 [2]?
**A.** The pIC50 was 6.61.

**Q.** What about the pKi [7] of the same compound?
**A.** Its pKi is less than 7.57.

**Q.** COc1ccc(C2=N[C@@H](c3ccc(Cl)cc3)[C@@H](c3ccc(Cl)cc3)N2C(=O)N2CCNC(=O)C2)c(OC(C)C)c1 [NUTLIN-3] was tested. Which pIC50 [1] did it give?
**A.** Its pIC50 is 5.98.

**Q.** What about the pIC50 [2] of the same compound?
**A.** The pIC50 was 5.72.

**Q.** And the pIC50 [8]?
**A.** Its pIC50 is 5.73.

**Q.** And the pIC50 [9]?
**A.** Its pIC50 is 5.69.

**Q.** And the pIC50 [10]?
**A.** Its pIC50 is 8.19.

**Q.** And the pIC50 [11]?
**A.** Its pIC50 is 7.55.

**Q.** And the pIC50 [12]?
**A.** Its pIC50 is 7.62.

**Q.** What about the pIC50 [13] of the same compound?
**A.** Its pIC50 is 5.55.

Source: ChEMBL document CHEMBL5375985, “Discovery of JN122, a Spiroindoline-Containing Molecule that Inhibits MDM2/p53 Protein-Protein Interaction and Exerts Robust In Vivo Antitumor Efficacy” (J Med Chem, 2023)
